{
  "source": "patent US9932584B2",
  "about": "“Interfering RNA delivery system and uses thereof” (Arrowhead Pharmaceuticals Inc., priority 2012, dated 2018)",
  "system": "PPIB mRNA",
  "assay": "siRNA delivery with CPP-10H peptides, PPIB mRNA by Taqman qRT-PCR",
  "type": "cell-based",
  "conditions": "GTM-3 cells; for suppression of PPIB mRNA expression: PPIB siRNA complexed with peptide 20:1 peptide:siRNA, 1 hour, 48 hour post-transfection, normalized to β-actin mRNA, relative to non-treated cells",
  "method": "The ability of 10 histidine residues (10H) to enhance endosomal release of siRNAs delivered using certain cell penetrating peptides (CPPs) was examined. […] (SEQ ID NO: 12). Peptidyl-prolyl cis-trans isomerase B (PPIB) siRNA and Non-Targeting siRNA #2 (NTC2) (Thermo Fisher Scientific, Dharmacon Products, Lafayette, Colo.) were complexed with TAT-10H, CTP-10H, and YM3-10H peptides (Abgent, Inc., San Diego, Calif.) at a 20:1 peptide: siRNA molar ratio for 30 minutes at room temperature, and applied to GTM-3 cells (Pang, I. H., et al., 1994 Curr Eye Res. 13:51-63) at a final siRNA concentration of 100-800 nM for 1 hour. PPIB mRNA and β-actin mRNA levels were determined by Taqman qRT-PCR assay (Applied Biosystems, Austin, Tex.) at 48 hour post-transfection (FIG. 1). Data were normalized to β-actin mRNA, and expressed relative to PPIB mRNA level in non-treated cells.",
  "data": [
    {"sequence": "CHHHHHGGRRARRRRRRHHGHHC (CHHHHHGGRRARRRRRRHHHHHC) [CTP-10H]", "values": [
      {"measurement": "non-specific silencing of PPIB mRNA expression with NTC2 control", "setting": "NTC2 non-targeting siRNA delivered with peptide, 800 nM siRNA, possibly due to a cytotoxic effect", "value": "significant silencing"},
      {"measurement": "suppression of PPIB mRNA expression", "setting": "100 nM siRNA", "value": "~80", "unit": "%"},
      {"measurement": "suppression of PPIB mRNA expression", "setting": "200 nM siRNA", "value": "≥ 90", "unit": "%"},
      {"measurement": "suppression of PPIB mRNA expression", "setting": "800 nM siRNA", "value": "≥ 90", "unit": "%"}
    ]}
  ]
}
